Assay results from ChEMBL document CHEMBL1201862, “PubChem BioAssay data set” (2004).
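1) Cells in 96-well plates. 2) Compound, 48 h, 5 concentrations. 3) Linear interpolation between surrounding doses. 4) Unreached endpoint = highest concentration. GI50 = concentration required for 50% inhibition of growth.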 Activity calls are given as the source filed them. Cut-off read from the data, not from the text of the source: active = GI50 up to about 1.1 µM and inactive = higher.

Tests used:
Test in all cases: NCI tumour cell line growth inhibition, 48 h
[1] = test system: M14
[2] = test system: HCT-15
[3] = test system: 786-0
[4] = test system: SK-MEL-2
[5] = test system: BT-549
[6] = test system: SK-MEL-28
[7] = test system: MDA-N
[8] = test system: PC-3
[9] = test system: LOX IMVI
[10] = test system: NCI-H522
[11] = test system: IGROV-1
[12] = test system: MDA-MB-435
[13] = test system: SN12C
[14] = test system: NCI-H226
[15] = test system: HL-60
[16] = test system: SNB-19
[17] = test system: SF-295
[18] = test system: RXF 393
[19] = test system: K562
[20] = test system: HOP-62
[21] = test system: SW-620
[22] = test system: ACHN
[23] = test system: OVCAR-3
[24] = test system: SK-OV-3
[25] = test system: HT-29
[26] = test system: EKVX
[27] = test system: UO-31
[28] = test system: SR
[29] = test system: SF-268
[30] = test system: MDA-MB-231
[31] = test system: MCF7
[32] = test system: UACC-62
[33] = test system: NCI/ADR-RES
[34] = test system: HCT-116
[35] = test system: Malme-3M
[36] = test system: A549
[37] = test system: SK-MEL-5
[38] = test system: SF-539
[39] = test system: CAKI-1
[40] = test system: DU-145
[41] = test system: COLO 205
[42] = test system: OVCAR-5
[43] = test system: OVCAR-4
[44] = test system: TK-10
[45] = test system: NCI-H460
[46] = test system: KM12
[47] = test system: RPMI-8226
[48] = test system: SNB-75
[49] = test system: T47D
[50] = test system: CCRF-CEM
[51] = test system: HOP-92
[52] = test system: OVCAR-8
[53] = test system: HCC 2998
[54] = test system: MOLT-4
[55] = test system: NCI-H23
[56] = test system: U-251
[57] = test system: UACC-257
[58] = test system: Hs-578T

COC(=O)[C@]1(c2cc3ccccc3[nH]2)CC2CNC1C1OC(C)(C)OC21 (stereo partly drawn)
GI50 [1]: > 100 µM (inactive)
GI50 [2]: > 100 µM
GI50 [3]: > 100 µM (inactive)
GI50 [4]: > 100 µM (inactive)
GI50 [5]: > 100 µM (inactive)
GI50 [6]: > 100 µM (inactive)
GI50 [7]: 75.9 µM (inactive)
GI50 [8]: > 100 µM (inactive)
GI50 [9]: > 100 µM (inactive)
GI50 [10]: > 100 µM (inactive)
GI50 [11]: > 100 µM (inactive)
GI50 [12]: 84.5 µM (inactive)
GI50 [13]: > 100 µM (inactive)
GI50 [14]: > 100 µM (inactive)
GI50 [15]: > 100 µM (inactive)
GI50 [16]: > 100 µM (inactive)
GI50 [17]: > 100 µM (inactive)
GI50 [18]: 60.1 µM (inactive)
GI50 [19]: 73.6 µM (inactive)
GI50 [20]: > 100 µM (inactive)
GI50 [21]: > 100 µM (inactive)
GI50 [22]: > 100 µM (inactive)
GI50 [23]: > 100 µM (inactive)
GI50 [24]: > 100 µM (inactive)
GI50 [25]: > 100 µM (inactive)
GI50 [26]: > 100 µM (inactive)
GI50 [27]: > 100 µM (inactive)
GI50 [28]: 47.9 µM (inactive)
GI50 [29]: > 100 µM (inactive)
GI50 [30]: 64.7 µM (inactive)
GI50 [31]: > 100 µM (inactive)
GI50 [32]: > 100 µM (inactive)
GI50 [33]: > 100 µM (inactive)
GI50 [34]: > 100 µM (inactive)
GI50 [35]: > 100 µM (inactive)
GI50 [36]: > 100 µM (inactive)
GI50 [37]: > 100 µM (inactive)
GI50 [38]: > 100 µM (inactive)
GI50 [39]: > 100 µM (inactive)
GI50 [40]: > 100 µM (inactive)
GI50 [41]: > 100 µM (inactive)
GI50 [42]: > 100 µM (inactive)
GI50 [43]: > 100 µM (inactive)
GI50 [44]: > 100 µM (inactive)
GI50 [45]: > 100 µM (inactive)
GI50 [46]: > 100 µM (inactive)
GI50 [47]: 61.4 µM (inactive)
GI50 [48]: > 100 µM (inactive)
GI50 [49]: 52.4 µM (inactive)
GI50 [50]: > 100 µM (inactive)
GI50 [51]: > 100 µM (inactive)
GI50 [52]: > 100 µM (inactive)
GI50 [53]: > 100 µM (inactive)
GI50 [54]: 66.4 µM (inactive)
GI50 [55]: > 100 µM (inactive)
GI50 [56]: > 100 µM (inactive)
GI50 [57]: > 100 µM (inactive)

c1ccc2c(c1)CCN2CCN1CCc2ccccc21
GI50 [1]: > 10 µM (inactive)
GI50 [2]: > 10 µM
GI50 [3]: > 10 µM (inactive)
GI50 [4]: > 10 µM (inactive)
GI50 [6]: > 10 µM (inactive)
GI50 [7]: > 10 µM (inactive)
GI50 [8]: > 10 µM (inactive)
GI50 [9]: > 10 µM (inactive)
GI50 [10]: > 10 µM (inactive)
GI50 [11]: > 10 µM (inactive)
GI50 [12]: > 10 µM (inactive)
GI50 [13]: > 10 µM (inactive)
GI50 [14]: > 10 µM (inactive)
GI50 [15]: > 10 µM (inactive)
GI50 [16]: > 10 µM (inactive)
GI50 [17]: > 10 µM (inactive)
GI50 [18]: > 10 µM (inactive)
GI50 [19]: > 10 µM (inactive)
GI50 [20]: > 10 µM (inactive)
GI50 [21]: > 10 µM (inactive)
GI50 [22]: > 10 µM (inactive)
GI50 [23]: > 10 µM (inactive)
GI50 [24]: > 10 µM (inactive)
GI50 [25]: > 10 µM (inactive)
GI50 [26]: > 10 µM (inactive)
GI50 [27]: > 10 µM (inactive)
GI50 [28]: > 10 µM (inactive)
GI50 [29]: > 10 µM (inactive)
GI50 [30]: > 10 µM (inactive)
GI50 [31]: > 10 µM (inactive)
GI50 [32]: > 10 µM (inactive)
GI50 [33]: > 10 µM (inactive)
GI50 [34]: > 10 µM (inactive)
GI50 [36]: > 10 µM (inactive)
GI50 [37]: > 10 µM (inactive)
GI50 [38]: > 10 µM (inactive)
GI50 [39]: > 10 µM (inactive)
GI50 [40]: > 10 µM (inactive)
GI50 [41]: > 10 µM (inactive)
GI50 [42]: > 10 µM (inactive)
GI50 [43]: > 10 µM (inactive)
GI50 [44]: > 10 µM (inactive)
GI50 [58]: > 10 µM (inactive)
GI50 [45]: > 10 µM (inactive)
GI50 [46]: > 10 µM (inactive)
GI50 [47]: > 10 µM (inactive)
GI50 [48]: > 10 µM (inactive)
GI50 [49]: > 10 µM (inactive)
GI50 [50]: > 10 µM (inactive)
GI50 [51]: > 10 µM (inactive)
GI50 [52]: > 10 µM (inactive)
GI50 [53]: > 10 µM (inactive)
GI50 [54]: > 10 µM (inactive)
GI50 [55]: > 10 µM (inactive)
GI50 [56]: > 10 µM (inactive)
GI50 [57]: > 10 µM (inactive)
